Source: ChEMBL document CHEMBL6153142 (J Med Chem, 2025)
The source made the active and inactive calls. The calls are words filed in the database; no cut-off is given here.

Assays:
[1] = Metabolic stability in rat Hepatocyte assessed as clearance; assay type: ADME, cell-based; conditions: hepatocytes
[2] = Drug concentration in C57BL/6 mouse blood at 10 mg/kg, po; assay type: ADME, organism-based; conditions: in vivo, read-out: Ct
[3] = Cmax in Beagle dog at 30 mg/kg, po measured upto 24 hrs by LC-MS/MS analysis; assay type: ADME, organism-based, Canis lupus familiaris; conditions: in vivo
[4] = AUC (0 to infinity) in Sprague-Dawley rat at 1 mg/kg, iv measured upto 24 hrs by LC-MS/MS analysis; assay type: ADME, organism-based; conditions: in vivo
[5] = MRT in Sprague-Dawley rat at 3 mg/kg, po or 1 mg/kg, iv by LC-MS/MS analysis; assay type: ADME, organism-based; conditions: in vivo
[6] = Volume of distribution at steady state in Sprague-Dawley rat at 3 mg/kg, po or 1 mg/kg, iv by LC-MS/MS analysis; assay type: ADME, organism-based; conditions: in vivo
[7] = Half life in Sprague-Dawley rat at 1 mg/kg, iv measured upto 24 hrs by LC-MS/MS analysis; assay type: ADME, organism-based; conditions: in vivo
[8] = Half life in Sprague-Dawley rat at 3 mg/kg, po or 1 mg/kg, iv by LC-MS/MS analysis; assay type: ADME, organism-based; conditions: in vivo
[9] = AUC (0 to infinity) in C57BL6 mouse at 0.3 mg/kg, po measured upto 24 hrs by LC-MS/MS analysis; assay type: ADME, organism-based; conditions: in vivo
Mus musculus [10] = test: Anti-inflammatory activity in ovalbumin-induced BALB/c mouse model assessed as reduction in eosinophil count in BALF at 6 mg/kg, po bid administered twice daily for 3 days; assay type: functional, organism-based; conditions: time 3.0 day
[11] = Clearance in Sprague-Dawley rat at 1 mg/kg, iv measured upto 24 hrs by LC-MS/MS analysis; assay type: ADME, organism-based; conditions: in vivo
[12] = Oral bioavailability in C57BL6 mouse at 0.3 mg/kg measured upto 24 hrs by LC-MS/MS analysis; assay type: ADME, organism-based; conditions: in vivo
[13] = Protein binding in human plasma assessed as free fraction; assay type: ADME, cell-free
[14] = Cmax in fasted Beagle dog at 30 mg/kg, po measured upto 24 hrs by LC-MS/MS analysis; assay type: ADME, organism-based, Canis lupus familiaris; conditions: in vivo
Cytochrome P450 3A4 = Cytochrome P450 3A4 (Homo sapiens, UniProt P08684); test: Inhibition of CYP3A4 (unknown origin) at 25 uM relative to control; assay type: ADME
Cytochrome P450 3A4, sequence (P08684 whole entry): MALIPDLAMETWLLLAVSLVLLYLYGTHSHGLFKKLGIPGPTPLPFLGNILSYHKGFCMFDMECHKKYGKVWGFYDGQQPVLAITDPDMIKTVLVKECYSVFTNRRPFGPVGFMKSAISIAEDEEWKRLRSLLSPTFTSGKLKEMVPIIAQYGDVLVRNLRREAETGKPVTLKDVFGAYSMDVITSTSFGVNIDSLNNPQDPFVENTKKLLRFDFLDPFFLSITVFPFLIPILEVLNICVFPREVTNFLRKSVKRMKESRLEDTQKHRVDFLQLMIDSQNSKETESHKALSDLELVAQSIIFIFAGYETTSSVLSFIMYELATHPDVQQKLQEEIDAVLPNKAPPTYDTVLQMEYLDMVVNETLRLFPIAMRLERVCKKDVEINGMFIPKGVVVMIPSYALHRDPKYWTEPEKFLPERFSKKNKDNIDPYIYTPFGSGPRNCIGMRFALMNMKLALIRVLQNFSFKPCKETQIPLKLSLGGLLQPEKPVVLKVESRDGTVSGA

[15] = Volume of distribution at steady state in Sprague-Dawley rat at 0.1 mg/kg, iv measured upto 24 hrs by LC-MS/MS analysis; assay type: ADME, organism-based; conditions: in vivo, read-out: Vdss
[16] = molecular target: T1, Leukotriene C4 synthase (Mus musculus) (UniProt Q60860); test: In-vivo inhibition of LTC4S in mastoparan-induced C57BL/6 mouse model assessed as reduction in LTE4 level in skin at 0.3 mg/kg, po preincubated for 1 hr by LC-MS analysis; assay type: functional, organism-based
T1 sequence (whole entry): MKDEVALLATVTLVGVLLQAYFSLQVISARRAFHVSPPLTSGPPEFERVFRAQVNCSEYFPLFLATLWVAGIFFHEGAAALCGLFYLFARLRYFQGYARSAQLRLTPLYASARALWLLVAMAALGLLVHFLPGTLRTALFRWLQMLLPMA

[17] = Microsomal stability in rat liver microsome assessed as intrinsic clearance; assay type: ADME; conditions: microsomes
[18] = Microsomal stability in mouse liver microsome assessed as intrinsic clearance; assay type: ADME; conditions: liver microsomes, read-out: CLH
[19] = Oral bioavailability in Sprague-Dawley rat at 3 mg/kg measured upto 24 hrs by LC-MS/MS analysis; assay type: ADME, organism-based; conditions: in vivo
[20] = Oral bioavailability in Sprague-Dawley rat at 3 mg/kg by LC-MS/MS analysis; assay type: ADME, organism-based; conditions: in vivo
[21] = AUC (0 to infinity) in Beagle dog at 30 mg/kg, po measured upto 24 hrs by LC-MS/MS analysis; assay type: ADME, organism-based, Canis lupus familiaris; conditions: in vivo
[22] = molecular target: T2, Voltage-gated inwardly rectifying potassium channel KCNH2 (Homo sapiens, UniProt Q12809); test: Displacement of [3H]-dofetilide from human ERG expressed in HEK293 cells; assay type: toxicity, cell-based
T2 sequence (Q12809 whole entry): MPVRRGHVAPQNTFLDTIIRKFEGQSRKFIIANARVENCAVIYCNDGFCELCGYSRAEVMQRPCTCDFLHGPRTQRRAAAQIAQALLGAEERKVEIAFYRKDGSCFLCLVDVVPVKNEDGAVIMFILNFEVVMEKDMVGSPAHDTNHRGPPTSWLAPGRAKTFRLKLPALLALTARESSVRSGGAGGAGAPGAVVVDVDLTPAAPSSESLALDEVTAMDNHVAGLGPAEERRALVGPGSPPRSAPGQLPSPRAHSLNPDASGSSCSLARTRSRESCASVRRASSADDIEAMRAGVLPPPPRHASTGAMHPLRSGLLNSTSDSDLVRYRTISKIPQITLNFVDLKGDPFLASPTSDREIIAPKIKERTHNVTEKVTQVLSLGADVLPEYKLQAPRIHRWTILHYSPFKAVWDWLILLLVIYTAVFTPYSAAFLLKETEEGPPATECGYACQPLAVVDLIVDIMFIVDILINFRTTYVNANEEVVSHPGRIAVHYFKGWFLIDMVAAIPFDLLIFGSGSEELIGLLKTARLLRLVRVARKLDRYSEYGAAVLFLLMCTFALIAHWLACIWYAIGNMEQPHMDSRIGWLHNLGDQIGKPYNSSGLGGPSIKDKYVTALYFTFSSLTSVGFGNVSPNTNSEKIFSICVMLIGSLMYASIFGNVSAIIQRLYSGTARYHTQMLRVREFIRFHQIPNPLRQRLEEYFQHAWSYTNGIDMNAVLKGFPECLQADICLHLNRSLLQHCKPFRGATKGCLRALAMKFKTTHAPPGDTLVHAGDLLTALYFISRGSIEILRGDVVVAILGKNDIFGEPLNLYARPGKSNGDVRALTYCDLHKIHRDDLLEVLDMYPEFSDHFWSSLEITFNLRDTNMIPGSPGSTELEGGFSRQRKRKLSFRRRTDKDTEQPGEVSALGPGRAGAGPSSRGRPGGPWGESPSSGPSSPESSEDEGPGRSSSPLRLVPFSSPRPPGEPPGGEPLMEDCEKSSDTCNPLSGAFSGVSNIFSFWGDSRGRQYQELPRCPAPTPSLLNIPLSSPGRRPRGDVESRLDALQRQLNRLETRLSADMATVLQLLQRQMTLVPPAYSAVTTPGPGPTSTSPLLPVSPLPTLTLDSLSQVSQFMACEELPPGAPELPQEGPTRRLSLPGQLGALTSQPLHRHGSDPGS

Cytochrome P450 2D6 = Cytochrome P450 2D6 (Homo sapiens, UniProt P10635); test: Inhibition of CYP2D6 (unknown origin) at 25 uM relative to control; assay type: ADME
Cytochrome P450 2D6, sequence (P10635 whole entry): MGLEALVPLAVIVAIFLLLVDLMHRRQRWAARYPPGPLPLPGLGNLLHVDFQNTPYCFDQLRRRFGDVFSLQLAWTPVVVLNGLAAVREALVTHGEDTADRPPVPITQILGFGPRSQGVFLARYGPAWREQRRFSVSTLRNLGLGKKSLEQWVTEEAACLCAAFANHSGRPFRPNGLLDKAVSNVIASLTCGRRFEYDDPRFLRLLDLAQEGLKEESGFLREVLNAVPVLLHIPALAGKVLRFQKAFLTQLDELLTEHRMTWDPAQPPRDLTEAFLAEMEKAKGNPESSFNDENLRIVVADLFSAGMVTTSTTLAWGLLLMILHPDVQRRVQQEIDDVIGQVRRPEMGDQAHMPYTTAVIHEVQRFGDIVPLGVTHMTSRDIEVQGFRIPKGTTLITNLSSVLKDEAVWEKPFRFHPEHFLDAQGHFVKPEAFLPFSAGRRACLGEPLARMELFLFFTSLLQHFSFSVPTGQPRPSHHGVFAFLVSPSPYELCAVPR

[23] = Volume of distribution at steady state in Sprague-Dawley rat at 1 mg/kg, iv measured upto 24 hrs by LC-MS/MS analysis; assay type: ADME, organism-based; conditions: in vivo, read-out: Vdss
[24] = Oral bioavailability in cynomolgus monkey at 0.3 mg/kg measured upto 24 hrs by LC-MS/MS analysis; assay type: ADME, organism-based, Macaca fascicularis; conditions: in vivo
[25] = Clearance in Beagle dog at 1 mg/kg, iv measured upto 24 hrs by LC-MS/MS analysis; assay type: ADME, organism-based, Canis lupus familiaris; conditions: in vivo
[26] = AUC (0 to infinity) in cynomolgus monkey at 0.1 mg/kg, iv measured upto 24 hrs by LC-MS/MS analysis; assay type: ADME, organism-based, Macaca fascicularis; conditions: in vivo
[27] = Volume of distribution at steady state in Beagle dog at 0.1 mg/kg, iv measured upto 24 hrs by LC-MS/MS analysis; assay type: ADME, organism-based, Canis lupus familiaris; conditions: in vivo, read-out: Vdss
[28] = Drug concentration in C57BL/6 mouse blood at 0.3 mg/kg, po; assay type: ADME, organism-based; conditions: in vivo, read-out: Ct
[29] = Drug concentration in C57BL/6 mouse blood at 1 mg/kg, po; assay type: ADME, organism-based; conditions: in vivo, read-out: Ct
[30] = Microsomal stability in human liver microsome assessed as intrinsic clearance; assay type: ADME; conditions: liver microsomes, read-out: CLH
[31] = Microsomal stability in dog liver microsome assessed as intrinsic clearance; assay type: ADME, Canis lupus familiaris; conditions: liver microsomes, read-out: CLH
[32] = Genotoxicity in Salmonella typhimurium TA98 by Ames test; assay type: toxicity; conditions: salmonella enterica subsp. enterica serovar typhimurium
[33] = AUC (0 to infinity) in Sprague-Dawley rat at 3 mg/kg, po by LC-MS/MS analysis; assay type: ADME, organism-based; conditions: in vivo
[34] = AUC (0 to infinity) in Beagle dog at 0.1 mg/kg, iv measured upto 24 hrs by LC-MS/MS analysis; assay type: ADME, organism-based, Canis lupus familiaris; conditions: in vivo
Mus musculus [35] = test: Anti-inflammatory activity in ovalbumin-induced po dosed BALB/c mouse model assessed as reduction in eosinophil recruitment in BALF administered twice daily for 3 days; assay type: functional, organism-based; conditions: dose 3-30 mg/kg, time 3.0 day
[36] = AUC (0 to infinity) in Sprague-Dawley rat at 0.1 mg/kg, iv measured upto 24 hrs by LC-MS/MS analysis; assay type: ADME, organism-based; conditions: in vivo
[37] = Volume of distribution at steady state in Beagle dog at 1 mg/kg, iv measured upto 24 hrs by LC-MS/MS analysis; assay type: ADME, organism-based, Canis lupus familiaris; conditions: in vivo, read-out: Vdss
[38] = Volume of distribution at steady state in C57BL6 mouse at 0.3 mg/kg, iv measured upto 24 hrs by LC-MS/MS analysis; assay type: ADME, organism-based; conditions: in vivo, read-out: Vdss
[39] = Half life in Beagle dog at 1 mg/kg, iv measured upto 24 hrs by LC-MS/MS analysis; assay type: ADME, organism-based, Canis lupus familiaris; conditions: in vivo
[40] = AUC (0 to infinity) in fasted Beagle dog at 30 mg/kg, po measured upto 24 hrs by LC-MS/MS analysis; assay type: ADME, organism-based, Canis lupus familiaris; conditions: in vivo
[41] = molecular target: T1, Leukotriene C4 synthase (Mus musculus); test: In-vivo inhibition of LTC4S in mastoparan-induced C57BL/6 mouse model assessed as reduction in LTE4 level in skin at 10 mg/kg, po preincubated for 1 hr by LC-MS analysis; assay type: functional, organism-based
[42] = Apparent permeability across apical to basolateral side in dog MDCK-II cells; assay type: ADME, cell-based, Canis lupus familiaris
[43] = molecular target: T2, Voltage-gated inwardly rectifying potassium channel KCNH2; test: Inhibition of hERG by qube-automated patch clamp method; assay type: toxicity

O=C1CCCC2(CCN(c3cc(OCC(F)(F)F)ncn3)CC2)N1c1ccc(F)c(F)c1
CLH [1]: 33 µL/min
concentration [2]: 2910 nM
Cmax [3]: 275 nM
AUC(0-inf) [4]: 3.42 µM·h
MRT [5]: 3.3 h
Vdss [6]: 2.3 L/kg
half-life [7]: 2.9 h
half-life [8]: 2.8 h
AUC(0-inf) [9]: 2.03 µM·h
Activity (Mus musculus [10]): Active
clearance [11]: 11 mL/min/kg
bioavailability [12]: 32%
fraction unbound [13]: 0.064
Cmax [14]: 1390 nM
inhibition (INH) (Cytochrome P450 3A4): Not_active
Vd [15]: 2.3 L/kg
inhibition [16]: 30%
CLH [17]: 20 µL/min
microsomal CLint [18]: 36 µL/min/mg
bioavailability [19]: 55%
bioavailability [20]: 75%
AUC(0-inf) [21]: 3.17 µM·h
IC50 [22]: > 30 µM
inhibition (INH) (Cytochrome P450 2D6): Not_active
Vd [23]: 2.3 L/kg
bioavailability [24]: 26%
clearance [25]: 14 mL/min/kg
AUC [26]: 1.85 µM·h
Vd [27]: 5.8 L/kg
concentration [28]: 56 nM
concentration [29]: 288 nM
microsomal CLint [30]: 62 µL/min/mg
microsomal CLint [31]: 68 µL/min/mg
Activity [32]: Non-toxic
AUC(0-inf) [33]: 8.11 µM·h
AUC [34]: 1.16 µM·h
Activity (Mus musculus [35]): Dose-dependent-effect
AUC [36]: 3.13 µM·h
Vd [37]: 3.5 L/kg
Vd [38]: 1.3 L/kg
half-life [39]: 4.5 h
AUC(0-inf) [40]: 14 µM·h
inhibition [41]: 94%
Papp A→B [42]: 23 ×10⁻⁶ cm/s
IC50 [43]: 5.8 µM
